# T1: lambda phosphatase (Escherichia phage lambda, UniProt P03772)
# T1 sequence (P03772 1-221): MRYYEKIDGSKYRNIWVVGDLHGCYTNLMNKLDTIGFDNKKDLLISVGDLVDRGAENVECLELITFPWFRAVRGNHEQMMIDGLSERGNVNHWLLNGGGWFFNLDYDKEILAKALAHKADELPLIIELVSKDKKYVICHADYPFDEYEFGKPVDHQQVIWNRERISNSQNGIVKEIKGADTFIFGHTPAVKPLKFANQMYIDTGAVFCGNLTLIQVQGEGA
# How the values were obtained:
# [1] = test system: Ci; assay: Ci induction in cl-8 cells with or without HH-N conditioned medium, Western blot; type: cell-based, Drosophila; details: up to 100 nM, 4 hours, presence of HH or not
# Description: cl-8 cells were cultured as described in Van Leeuwen, F., et al. Nature, 368:342-344, 1994. Culture and transfection of S2 cells were performed as described in Porter, J. A. et al. Cell, 86: 21-34, 1996. The conditioned medium was made by culturing transfected S2 cells in cl-8 medium, and induced by adding CUSO4, to the final concentration of 0.5 Mm overnight. The conditioned medium was harvested the next day, centrifuged to remove S2 cells and the supernatant was used. To make lysate from cl-8 cells, cl-8 cells were washed, harvested in cold phosphate buffered saline (PBS), and then resuspended in NP-40 lysis buffer (150 Mm NaCl, 50 Mm Tris pH8, 1% NP-40, 1 Mm EDTA, 20 μg/ml aprotinin, 20 μg/ml leupeptin, 1 μg/ml pepstatin A, 2.5 μg/ml antipain, 100 μM PMSF, 50 mM NaF, 5 mM Na2P4O7). Cells were lysed at 4° C. for 10 minutes, then centrifuged at 13,000×g for 10 minutes. The supernatant was saved for Western blot analysis.
# SDS-PAGE and protein transfer were carried out by standard methods. The primary antibodies used were: rat monoclonal anti-Ci 2Al 1:20 dilution; mouse monoclonal anti-Ptc 1:1000 dilution; mouse monoclonal anti-actin 1:2500. Secondary antibodies were from Jackson Immunologicals. The filters were developed using SuperSignal from Pierce.
# Tautomycin (TAU) and okadaic acid (OA) were purchased from Calbiochem and dissolved in dimethyl sulfoxide (DMSO) to different concentrations. The phosphatase inhibitors were mixed with conditioned medium and the concentration of DMSO was adjusted to 0.2% for each sample. cl-8 cells were incubated with conditioned medium and phosphatase inhibitor mixture for 4 hours and lysed for analysis.
# [2] = biological target: phosphatase 1 (PP1); details: read-out: IC50, phosphatase 1 (PP1) inhibition; cited from earlier work
# [3] = test system: ShhRE; assay: ShhRE-tkCAT reporter mRNA and enzyme activity in P19 cells with cycloheximide; type: cell-based, mouse; details: 50 μM for 14 hours
# Description: Methods described in Example 6 were used in addition to the following protocols. P19 cells were co-transfected with either three copies of the ShhRE or mutant ShhRE (mShhRE) element placed upstream of the tk-CAT along with tk-LUC plasmid as an internal control. Cells were treated with 1.0 nM Shh-N (12 hours) and with or without 50 μM cycloheximide (Chx) for 14 hours and harvested to obtain total RNA. Sixty μg of total RNA from these cells were used in an RNase protection assay. RNase protection assays were performed as described in Example 6. Specific riboprobes were generated to analyze the relative levels of the CAT and LUC mRNA levels. A 255 bp region of the CAT coding sequence or 123 bp of the luciferase coding region was used to generate an antisense riboprobe and was hybridized with 60 μg of total RNA, obtained from transfected P19 cells. The amount (50 μM) and extent (14 hours) of cycloheximide treatment was based on inhibition of protein synthesis as indicated by a significant loss in reporter enzyme activity.
# [4] = test system: ShhRE; assay: EMSA of Shh-induced protein binding to radiolabeled ShhRE, P19 nuclear extracts; type: cell-based, mouse; details: 1.0 nM Shh-N, 24 hours
# Description: Methods described in Example 6 were used in addition to the following protocols. P19 cells were treated with or without Shh-N for 24 hours and nuclear extracts were obtained and used in an electrophoretic mobility shift assay (EMSA) with radiolabeled ShhRE. The following oligos were used as competitors or probes in these assays; WT ShhRE—GTTCTACATAATGCGCCG—SEQ ID NO:1; mShhRE—GTTCTACgTgATGCGCCG—SEQ ID NO:3; GliRE—[…]—. SEQ ID NO:4, Different amounts of unlabeled Gli response element (GliRE) (FIG. 5C, lane 3, 100X; lane 4, 50X; lane 5, 25X; and lane 6, 10X) or ShhRE (lane 7; 100X, lane 8; 50X and lane 9; 10X) was used as a competitor at the indicated molar excess.
# In EMSA, radiolabeled probe was incubated with the nuclear extracts (10 μg) along with 4 μg poly dG-dC in a binding reaction containing 10 mM Tris pH 7.5, 50 mM NaCl, 1 mM EDTA, 1 mM DTT, 0.1 mg/ml BSA, and 5% glycerol. Later the mixture was loaded onto a 5% polyacrylamide gel and the retarded complexes were separated-in 1× TBE buffer and analyzed using autoradiography.
# (§1) P-19 cells were treated with phosphatase inhibitors to study the endogenous levels of COUP-TFII mRNA. […] Total RVA was isolated from these cells and 20 μg of RNA was used in a RNase protection assay as described above in Example 6. A region of the murine Cyclophilin A cDNA was used to generate riboprobe and was used as an internal control. P19 cells were co-treated with (FIG. 7C, lane 2, 4, 6, and 7) or without (FIG. 7C, lane 1, 3, and 5) 1.0 nM Shh-N and 5 nM OA (lane 3 and 4), 0.5 nM CyA (FIG. 7C, lane 5 & 6) or 5 nm NoA (FIG. 7C, lane 9). Cells were harvested after 24 hours of treatment and the nuclear extract was obtained for the binding reactions. Extracts were subjected to an EMSA as described earlier.
# [5] = test system: COUP-TFII mRNA; assay: COUP-TFII mRNA in P19 cells, RNase protection assay; type: cell-based, mouse; details: for Shh-induced COUP-TFII mRNA: with 1.0 nM Shh-N
# Description: The P19 mouse embryo carcinoma cell line which was earlier shown to contain increased levels of COUP-TF transcripts after retinoid treatment was utilized. Jonk, L. J. C., et al., Mechan. of Dev. (1994) 47:81-97). Conditioned media obtained from COS-1 cells transfected with mouse Shh-N cDNA expression plasmid or purified E. coli expressed recombinant Shh-N was used.
# Briefly, a total of 20 μg RNA was hybridized to a 450 (FIG. 5A) or 120 (FIG. 7B) nucleotide riboprobe that corresponds to the 5′ untranslated region (UTR) of the COUP-TFII gene along with a 670 (FIG. 5A) or 102 (FIG. 7B) nucleotide riboprobe of the murine Cyclophilin A coding region. The RPA II™ kit from Ambion was used to perform the RNase protection assay. The products were subjected to RNase digestion and analyzed on a 6% urea polyacrylamide gel.
# as §1
# [6] = test system: PP1 and PP2A enzyme activity; assay: Protein phosphatase assay on nuclear extracts of control and Shh treated P19 cells; type: biochemical, mouse
# Description: P19 cells were treated with or without 1 nM Shh for 36 hours and nuclear extracts from these cells were obtained as described earlier. A protein phosphatase assay system™ (Life Technologies, Bethesda) was used to quantitate the phosphatase activity present in the control and induced extracts. P19 cells were treated with or without 1 nM Shh for 36 hours and nuclear extracts from these cells were obtained and incubated with 2 nM OA or 4 nM Inh-2 protein for 15 minutes at 30° C. Results are expressed as mean±sd from three separate experiments.
# [7] = biological target: T1, lambda phosphatase; assay: Lambda phosphatase treatment of immunoprecipitated Ci, mobility shift; type: biochemical; details: 1 mM sodium orthovanadate, 30° C. for 1 hour
# Description: cl-8 cells were incubated in conditioned medium for 4 hours and lysed on ice for 20 minutes in 1 ml of NP-40 lysis buffer per T75 flask. The lysate was incubated with 100 μl of anti-Ci 2A1 or 0.3 μl of normal rat serum at 4° C. for 2 hours. 50 μl of 50% Protein G beads were added and incubated for 1 hour. The beads were collected and washed in NP-40 lysis buffer, then in lambda phosphatase buffer (50 mM Tris pH 7.8, 5 mM dithiothritol, 20 mM MnCl2, […] bovine serum albumin, 20 μg/ml aprotinin, 20 μg/ml leupeptin, 1 μg/ml pepstatin A, 2.5 μg/ml antipain, 100 μM PMSF). The beads were resuspended in 50 μl of lambda phosphatase buffer, plus 1 mM of sodium orthovanadate or 1.5 μl (30 unit) of lambda phosphatase according to the procedure. Each sample was incubated at 30° C. for 1 hour, then washed in NP-40 lysis buffer, and was boiled in SDS sample buffer for analysis.
molecule,measurement,setting,value
"CO[C@H]([C@H](O)CC(=O)[C@@H](C)[C@@H](O)CC[C@@H](C)[C@@H]1O[C@]2(CC[C@@H](C)[C@H](CC[C@H](C)C(C)=O)O2)CC[C@@H]1C)[C@H](OC(=O)C[C@@H](O)C1=C(C)C(=O)OC1=O)C(C)C [TAU, Tautomycin]",effect on Ci,[1],did not to have any effect
same,IC50,[2],10 nM
C[C@@H]1C[C@@H]([C@H](O)CC2CC(=O)NC(=O)C2)C(=O)[C@@H](C)C1 [cycloheximide],CAT and luciferase activities,[3],inhibited
same,Shh-induced increase in CAT mRNA,[3]; 1 nM Shh-N,not altered
Nor-Okadone [NoA],Shh-induced binding to radiolabeled ShhRE,[4]; 5 nM,unable to inhibit
same,Shh-induced COUP-TFII mRNA,[5]; 5 nM for 12 hours,incapable of inhibiting
Shh-N: purified E. coli expressed recombinant amino-terminal fragment of mouse Sonic hedgehog,net increase in phosphatase activity after Shh treatment,"[6]; 1 nM Shh, 36 hours, P19 nuclear extracts",2 fold
same,concentration at which a significant increase in COUP-TFII mRNA was observed,"[5]; P19 cells, 24 hours, densitometric analysis",≤ 0.2 nM
"COC[C@@H]([C@H](O)[C@H](O)C(=O)NCC[C@H](C)c1nc(/C=C/C[C@@H]2O[C@]3(C[C@@H](O)[C@@H]2C)O[C@H]([C@H](C[C@H](O)[C@H](C)[C@H](O)[C@H](C)/C=C(C)/C(C)=C/C=C/C(C)=C\C#N)OC)[C@H](OP(=O)(O)O)C3(C)C)co1)N(C)C [CyA, calyculin A]",Shh-induced binding to radiolabeled ShhRE,[4]; 0.5 nM,abolished
same,Shh-induced COUP-TFII mRNA,[5]; 0.5 nM for 12 hours,complete inhibition
[Na+].[Na+].[Na+].[O]=[V]([O-])([O-])[O-] [sodium orthovanadate],effect of lambda phosphatase on Ci mobility,[7],reversed
"Inhibitor-2: Inh-2 protein, a specific inhibitor of PP1 (protein, UniProt P41236 2-205, looked up) Protein phosphatase inhibitor …: AASTASHRPIKGILKNKTSTTSSMVASAEQPRGNVDEELSKKSQKWDEMNILATYHPADKDYGLMKIDEPSTPYHSMMGDDEDACSDTEATEAMAPDILARKLAAAEGLEPKYRIQEQESSGEEDSDLSPEEREKKRQFEMKRKLHYNEGLNIKLARQLISKDLHDDDEDEEMLETADGESMNTEESNQGSTPSDQQQNKLRSS",Shh-induced phosphatase activity,"[6]; 4 nM Inh-2 protein, 15 minutes at 30° C.",unable to inhibit
